Test results: paper PMC8391575, “Identification of Novel Cathepsin B Inhibitors with Implications in Alzheimer’s Disease: Computational Refining and Biochemical Evaluation” (Cells, 2021)
Where two headings read alike, the source gives them in different places.

Experiments:
human cathepsin B = target: T1, human cathepsin B (Homo sapiens, UniProt P07858); assay: Cathepsin B inhibitory assay, fluorometric kit (ab185438), AFC substrate; type: biochemical; details: 10 µM
T1 construct: purchased ab185438
Procedure: Cathepsin B inhibitory assay was performed using a fluorometric-based assay kit as per company instructions (ab185438). The assay kit utilizes the ability of cathepsin B to cleave synthetic AFC (7-Amino-4-trifluoromethyl coumarin) substrate to freely release AFC; moreover, this AFC can be quantified by a fluorometer. In the presence of cathepsin B inhibitors, the cleavage of the substrate was reduced, and there was a decrease in the total loss of the AFC fluorescence. The experiments were performed in triplicate. The test compounds (virtual screened hits) were prepared in different concentrations of 2.5, 5.0, 10.0, 15.0, and 20.0 µM. […] Next, fluorescence was measured in a kinetic mode for 30–60 min at 37 °C (Ex/Em = 400/505). Two timepoints were used—0 and 15 min (ΔT = T2 − T1)—and corresponding values for the fluorescence (ΔRFU = RFU2-RFU1) were used to calculate the slope for all test inhibitor samples and EC, by dividing the net ΔRFU values by the time ΔT. The percentage of relative inhibition was calculated using the following formula: % Relative Inhibition=Slope of EC−Slope of Sample /Slope of EC×100

AD animal models = details: cited from earlier work
cathepsin B = details: cited from earlier work; for pIC50 Experimental: Table 4
[1] = Figure 1, previously reported inhibitors of cathepsin B, read-out: IC50
[2] = class of the experimental IC50, read-out: Activity Scale Experimental
[3] = Table S1, read-out: IC50: half maximal inhibitory concentration

| Compound | pIC50 Experimental (cathepsin B) | IC50 (cathepsin B; [2]) [nM] | further results |
| --- | --- | --- | --- |
| F-F-FMK |  |  | relative inhibition (human cathepsin B): 69.67% |
| CCOC(=O)[C@H]1O[C@@H]1C(=O)N[C@@H](CC(C)C)C(=O)NCCC(C)C [Compound N20, ethyl (2S,3S)-3-[[(2S)-4-methyl-1-(3-methylbutylamino)-1-oxopentan-2-yl]carbamoyl]oxirane-2-carboxylate] | 8.47 | < 300 | Aβ in the brain (AD animal models): reduces Aβ in the brain; memory deficits (AD animal models): improves memory deficits; IC50 (cathepsin B; [1]): 14 nM |
| O=c1cc(-c2ccc(Oc3c(O)cc4oc(-c5ccc(O)cc5)cc(=O)c4c3O)cc2)oc2cc(O)cc(O)c12 [HIF, Hinokiflavone] |  |  | IC50 (cathepsin B; [1]): 580 nM |
| Nc1cc(OC(=O)c2cccs2)nn1S(=O)(=O)c1ccc(F)cc1 [Compound S32, [5-amino-1-(4-fluorophenyl)sulfonylpyrazol-3-yl] thiophene-2-carboxylate] | 6.36 | 300 to 2500 |  |
| O=C(Oc1oc(-c2ccco2)nc1/C=N/c1ccccc1)c1ccco1 [Compound S22, [2-(furan-2-yl)-4-(phenyliminomethyl)-1,3-oxazol-5-yl] furan-2-carboxylate] | 4.41 | > 2500 |  |
| CC(C)CC(NC(=O)C1OC1C(=O)O)C(=O)NCCCCCO (stereo not shown) [Compound N1, 3-[[1-(5-hydroxypentylamino)-4-methyl-1-oxopentan-2-yl]carbamoyl]oxirane-2-carboxylic acid] | 7.14 | < 300 |  |
| CCSc1ccccc1C(=O)n1nnc2ccccc21 [Compound S28, benzotriazol-1-yl-(2-ethylsulfanylphenyl)methanone] | 5.15 | > 2500 |  |
| N#Cc1c(N2CCCC2)nc(N)c2c(N)nc(N3CCCC3)cc12 [Compound S29, 1,8-diamino-3,6-dipyrrolidin-1-yl-2,7-naphthyridine-4-carbonitrile] | 5.49 | > 2500 |  |
| COc1cc(OC)cc(-c2cc3cnc(N)nc3nc2NC(=O)NC(C)(C)C)c1 [Compound N18, 1-[2-amino-6-(3,5-dimethoxyphenyl)pyrido[2,3-d]pyrimidin-7-yl]-3-tert-butylurea] | 6.24 | 300 to 2500 | IC50 (cathepsin B; [3]): 580 nM |
| CC1=C(C)C[S+]([O-])N(S(=O)(=O)c2ccc(Cl)cc2)C1 (stereo not shown) [Compound S25, 2-(4-chlorophenyl)sulfonyl-4,5-dimethyl-3,6-dihydrothiazine 1-oxide] | 5.38 | > 2500 |  |
| CC(=O)OC1(C(F)(F)F)Oc2ccccc2NC1=O (stereo not shown) [Compound S33, [3-oxo-2-(trifluoromethyl)-4H-1,4-benzoxazin-2-yl] acetate] | 6.07 | 300 to 2500 |  |
| CCOC(=O)[C@@H]1O[C@H]1C(=O)N[C@@H](CC(C)C)C(=O)N1CCN(Cc2ccc(OC)c(OC)c2OC)CC1 [Compound S39, ethyl(2R,3R)-3-[[(2S)-4-methyl-1-oxo-1-[4-[(2,3,4-trimethoxyphenyl)methyl]piperazin-1-yl]pentan-2-yl]carbamoyl]oxirane-2-carboxylate; sulfuric acid] | 6.09 | 300 to 2500 | IC50 (cathepsin B; [3]): 800 nM |
| CC(C)C[C@H](NC(=O)C1OC1C(=O)O)C(=O)NCCCC[C@H](N)C(=O)O (stereo partly drawn) [Compound N2, 3-[[(2S)-1-[[(5S)-5-amino-5-carboxypentyl]amino]-4-methyl-1-oxopentan-2-yl]carbamoyl]oxirane-2-carboxylic acid] | 6.89 | < 300 | IC50 (cathepsin B; [3]): 130 nM |
| Nc1nonc1-c1nc2ccccc2n1Cc1ccc(F)cc1 [Compound S5, 4-[1-[(4-fluorophenyl)methyl]benzimidazol-2-yl]-1,2,5-oxadiazol-3-amine] | 4.47 | > 2500 |  |
| COc1nc(N(C#N)CC(N)=O)nc(N2CCCC2)n1 [Compound S24, 2-[cyano-(4-methoxy-6-pyrrolidin-1-yl-1,3,5-triazin-2-yl)amino]acetamide] | 4.85 | > 2500 |  |
| CC(=O)NC(=O)NC1OC(=O)C(Cl)=C1Cl (stereo not shown) [Compound S16, N-[(3,4-dichloro-5-oxo-2H-furan-2-yl)carbamoyl]acetamide] | 5.67 | 300 to 2500 | IC50 (cathepsin B; [3]): 2120 nM |
| Cc1ccc(S(=O)(=O)n2nc(OC(=O)c3cccs3)cc2N)cc1 [Compound S7, [5-amino-1-(4-methylphenyl)sulfonylpyrazol-3-yl] thiophene-2-carboxylate] | 5.7 | 300 to 2500 | IC50 (cathepsin B; [3]): 1990 nM |
| COc1ccc(S(=O)(=O)n2nc(OC(=O)c3ccccc3)cc2N)cc1 [Compound S17, [5-amino-1-(4-methoxyphenyl)sulfonylpyrazol-3-yl] benzoate] | 5.02 | > 2500 |  |
| COc1ccccc1/N=C/c1nc(-c2ccccc2)oc1OC(C)=O [Compound S20, [4-[(2-methoxyphenyl)iminomethyl]-2-phenyl-1,3-oxazol-5-yl] acetate] | 5.05 | > 2500 |  |
| NCCCCNC(=O)[C@H](Cc1ccc(O)cc1)NC(=O)[C@H]1O[C@@H]1C(=O)O [Compound N7, (2S,3S)-3-{[(2S)-1-[(4-Aminobutyl)amino]-3-(4-hydroxyphenyl)-1-oxo-2-propanyl]carbamoyl}-2-oxiranecarboxylic acid] | 6.55 | < 300 | IC50 (cathepsin B; [3]): 280 nM |
| CC1=C(O)C(=O)C=C2C1=CC=C1[C@@]2(C)CC[C@@]2(C)[C@@H]3C[C@](C)(C(=O)O)CC[C@]3(C)CC[C@]12C [Compound N8, (2R,4aS,6aR,6aS,14aS,14bR)-10-hydroxy-2,4a,6a,6a,9,14a-hexamethyl-11-oxo-1,3,4,5,6,13,14,14b-octahydropicene-2-carboxylic acid] | 3.91 | > 2500 | IC50 (cathepsin B; [3]): 1250 nM; IC50 (cathepsin B; read-out: IC50): 125000 nM |
| CCOC(=O)[C@H]1O[C@@H]1C(=O)N[C@H](C(=O)N1CCC[C@H]1C(=O)O)[C@@H](C)CC [Compound S2, (2S)-1-[(2S,3S)-2-[[(2S,3S)-3-ethoxycarbonyloxirane-2-carbonyl]amino]-3-methylpentanoyl]pyrrolidine-2-carboxylic acid] | 8.55 | < 300 |  |
| Cc1c2ccncc2c(C)c2c1[nH]c1ccccc12 [Compound N12, 5,11-dimethyl-6H-pyrido[4,3-b]carbazole] | 7.99 | < 300 |  |
| O=[N+]([O-])NC1=NCCN1Cc1ccc(Cl)nc1 [Compound N10, N-[1-[(6-chloropyridin-3-yl)methyl]-4,5-dihydroimidazol-2-yl]nitramide] | 8.03 | < 300 |  |
| O=C(OC(C(=O)NCc1cccs1)c1ccccn1)c1cccs1 (stereo not shown) [Compound S11, [2-oxo-1-pyridin-2-yl-2-(thiophen-2-ylmethylamino)ethyl]thiophene-2-carboxylate] | 5.2 | > 2500 |  |
| COc1cccc(Cn2c(-c3nonc3N)nc3ccccc32)c1 [Compound S27, 4-[1-[(3-methoxyphenyl)methyl]benzimidazol-2-yl]-1,2,5-oxadiazol-3-amine] | 4.34 | > 2500 |  |
